± gives the expanded uncertainty stated by the source.
Details: 101 kPa, Liquid, Vibrating tube method

In the case of `C1CCC2=NCCCN2CC1` [1,8-diaza-7-bicyclo[5.4.0]undecene], the mass density (293.15 K) is reported as 1019.84 ± 0.24 kg/m3, the mass density (298.15 K) is reported as 1016.15 ± 0.24 kg/m3 and the mass density (303.15 K) is reported as 1012.45 ± 0.24 kg/m3. The mass density (308.15 K) was 1008.73 ± 0.24 kg/m3, the mass density (313.15 K) was 1005 ± 0.23 kg/m3 and the mass density (318.15 K) was 1001.25 ± 0.23 kg/m3. It also gave a mass density (323.15 K) of 997.479 ± 0.23 kg/m3, a mass density (328.15 K) of 993.692 ± 0.23 kg/m3 and a mass density (333.15 K) of 989.886 ± 0.23 kg/m3. It also gave a mass density (338.15 K) of 986.062 ± 0.23 kg/m3, a mass density (343.15 K) of 982.224 ± 0.23 kg/m3 and a mass density (348.15 K) of 978.366 ± 0.23 kg/m3. For the same molecule, the mass density (353.15 K) was 974.493 ± 0.23 kg/m3 and the mass density (358.15 K) was 970.601 ± 0.23 kg/m3.

Reference: the NIST ThermoML archive (doi:10.1016/j.fluid.2014.04.021)
